{"source": "patent US9284280B2", "about": "“Use of form-I crystal of 2-{4-[N-(5,6-diphenylpyrazin-2-yl)-N-isopropylamino]butyloxy}-N-(methylsulfonyl)acetamide” (NIPPON SHINYAKU CO., LTD., priority 2009, dated 2016)", "key": {"[1]": {"molecular_target": "PGI2 (Homo sapiens, UniProt P43119)", "sequence (P43119 whole entry)": "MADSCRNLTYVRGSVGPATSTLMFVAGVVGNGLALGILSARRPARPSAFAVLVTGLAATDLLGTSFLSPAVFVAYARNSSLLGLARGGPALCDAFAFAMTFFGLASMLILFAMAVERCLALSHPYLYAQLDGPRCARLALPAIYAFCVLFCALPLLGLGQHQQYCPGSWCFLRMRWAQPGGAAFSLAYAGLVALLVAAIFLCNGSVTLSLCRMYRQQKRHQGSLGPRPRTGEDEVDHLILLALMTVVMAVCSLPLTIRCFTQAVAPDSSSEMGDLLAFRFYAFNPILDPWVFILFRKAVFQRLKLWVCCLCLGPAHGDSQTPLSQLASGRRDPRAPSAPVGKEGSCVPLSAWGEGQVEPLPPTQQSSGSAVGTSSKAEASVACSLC", "conditions": "background statement, see WO 2002/088084; cited from earlier work"}, "[2]": {"experiment": "Measurement of particle size distribution of the crystals (HORIBA LA-910) and observation with electron scanning microscope", "format": "physicochemical", "conditions": "for D10: Cumulative undersize particle diameter at 10% of volumetric ratio / D50: Cumulative undersize particle diameter at 50% of volumetric ratio / D90: Cumulative undersize particle diameter at 90% of volumetric ratio: crystals dispersed with ultrasonic wave in saturated solution of compound A in 0.1 v/v % Polysorbate 80 aqueous solution", "experimental": "After a dispersant (10 mL) was added to the crystals of the invention (20 mg) followed by shaking up, the crystals of the invention were dispersed with ultrasonic wave. The particle size distributions of the crystals of the invention were measured by using HORIBA LA-910. The dispersant used is a filtered saturated solution of compound A in 0.1 v/v % Polysorbate 80 aqueous solution. D10: Cumulative undersize particle diameter at 10% of volumetric ratio [μm] D50: Cumulative undersize particle diameter at 50% of volumetric ratio [μm] D90: Cumulative undersize particle diameter at 90% of volumetric ratio [μm] (2) Observation of the Crystals of the Invention with Electron Scanning Microscope The crystals were observed through an electron scanning microscope (HITACHI HIGH TECHNOLOGIES TM-1000 Miniscope)."}}, "data": [{"smiles": "CC(C)N(CCCCOCC(=O)NS(C)(=O)=O)c1cnc(-c2ccccc2)c(-c2ccccc2)n1", "note": "[Compound A, 2-{4-[N-(5,6-diphenylpyrazin-2-yl)-N-isopropylamino]butyloxy}-N-(methylsulfonyl)acetamide]", "values": [{"measurement": "PGI2 agonistic effect", "setting": "[1]", "result": "excellent PGI2 agonistic effect"}]}, {"smiles": "CC(C)N(CCCCOCC(=O)NS(C)(=O)=O)c1cnc(-c2ccccc2)c(-c2ccccc2)n1", "note": "[Form-I Crystal of the Invention, 2-{4-[N-(5,6-diphenylpyrazin-2-yl)-N-isopropylamino]butyloxy}-N-(methylsulfonyl)acetamide]", "values": [{"measurement": "particle size compared between crystal forms", "setting": "[2]; conclusion from particle size distribution and electron scanning micrographs", "result": "larger than those of Form-II and Form-III crystals"}, {"measurement": "D10: Cumulative undersize particle diameter at 10% of volumetric ratio", "setting": "[2]", "result": 5.6, "unit": "μm"}, {"measurement": "D50: Cumulative undersize particle diameter at 50% of volumetric ratio", "setting": "[2]", "result": 12.8, "unit": "μm"}, {"measurement": "D90: Cumulative undersize particle diameter at 90% of volumetric ratio", "setting": "[2]", "result": 25.8, "unit": "μm"}]}, {"smiles": "CC(C)N(CCCCOCC(=O)NS(C)(=O)=O)c1cnc(-c2ccccc2)c(-c2ccccc2)n1", "note": "[Form-II Crystal of the Invention, 2-{4-[N-(5,6-diphenylpyrazin-2-yl)-N-isopropylamino]butyloxy}-N-(methylsulfonyl)acetamide]", "values": [{"measurement": "D10: Cumulative undersize particle diameter at 10% of volumetric ratio", "setting": "[2]", "result": 5.2, "unit": "μm"}, {"measurement": "D50: Cumulative undersize particle diameter at 50% of volumetric ratio", "setting": "[2]", "result": 11.3, "unit": "μm"}, {"measurement": "D90: Cumulative undersize particle diameter at 90% of volumetric ratio", "setting": "[2]", "result": 22.0, "unit": "μm"}]}, {"smiles": "CC(C)N(CCCCOCC(=O)NS(C)(=O)=O)c1cnc(-c2ccccc2)c(-c2ccccc2)n1", "note": "[Form-III Crystal of the Invention, 2-{4-[N-(5,6-diphenylpyrazin-2-yl)-N-isopropylamino]butyloxy}-N-(methylsulfonyl)acetamide]", "values": [{"measurement": "D10: Cumulative undersize particle diameter at 10% of volumetric ratio", "setting": "[2]", "result": 4.3, "unit": "μm"}, {"measurement": "D50: Cumulative undersize particle diameter at 50% of volumetric ratio", "setting": "[2]", "result": 8.0, "unit": "μm"}, {"measurement": "D90: Cumulative undersize particle diameter at 90% of volumetric ratio", "setting": "[2]", "result": 14.4, "unit": "μm"}]}]}
